Eight compounds from ChEMBL document CHEMBL3751680 (Bioorg Med Chem, 2016) can be followed below.

Structures are written as SMILES. pKi: −log10 of the molar value. Calls of active or inactive are those of the source. No cut-off for these calls is given here.

In general, pKi refers to −log10 of the Ki, conventionally taken in molar units.

For assay [1], the species on record is Canis lupus familiaris. In words: Binding affinity to hound bone powder assessed as reduction in bound compound level at 50 uM after 1 hr by NMR spectroscopic analysis relative to control. Further details: scale not given: the % may be the effect or the level left.
The species entered for assay [2] is Canis lupus familiaris. The experiment in a line: Binding affinity to hound bone powder assessed as reduction in bound compound level at 50 uM after 16 hrs by NMR spectroscopic analysis relative to alendronate. More on the design: scale not given: the % may be the effect or the level left.
Assay [3] is described as follows: Binding affinity to synthetic ceramic hydroxyapatite type 1 assessed as reduction in bound compound level at 50 uM after 16 hrs by NMR spectroscopic analysis relative to alendronate. Further details: scale not given: the % may be the effect or the level left.
Assay [4] is described as follows: Binding affinity to synthetic ceramic hydroxyapatite type 1 assessed as reduction in bound compound level at 50 uM after 16 hrs by NMR spectroscopic analysis relative to control. Further details: scale not given: the % may be the effect or the level left.
The species named for assay [5] is Canis lupus familiaris. In words: […] hound bone beams assessed as energy to fracture at 2 uM by 4 point bending analysis relative to control.
The species named for assay [6] is Canis lupus familiaris. In words: Binding affinity to hound bone powder assessed as reduction in bound compound level at 50 uM after 16 hrs by NMR spectroscopic analysis relative to control. Further details: scale not given: the % may be the effect or the level left.
For assay [7], the target named is Collagen alpha-1(I) chain (Canis lupus familiaris) (UniProt Q9XSJ7). In words: Binding affinity to hound collagen 1a1 (unknown origin) at 50 uM after 1 8 hrs by 1H NMR spectroscopic analysis.
Collagen alpha-1(I) chain (Canis lupus familiaris), sequence (Q9XSJ7 whole entry): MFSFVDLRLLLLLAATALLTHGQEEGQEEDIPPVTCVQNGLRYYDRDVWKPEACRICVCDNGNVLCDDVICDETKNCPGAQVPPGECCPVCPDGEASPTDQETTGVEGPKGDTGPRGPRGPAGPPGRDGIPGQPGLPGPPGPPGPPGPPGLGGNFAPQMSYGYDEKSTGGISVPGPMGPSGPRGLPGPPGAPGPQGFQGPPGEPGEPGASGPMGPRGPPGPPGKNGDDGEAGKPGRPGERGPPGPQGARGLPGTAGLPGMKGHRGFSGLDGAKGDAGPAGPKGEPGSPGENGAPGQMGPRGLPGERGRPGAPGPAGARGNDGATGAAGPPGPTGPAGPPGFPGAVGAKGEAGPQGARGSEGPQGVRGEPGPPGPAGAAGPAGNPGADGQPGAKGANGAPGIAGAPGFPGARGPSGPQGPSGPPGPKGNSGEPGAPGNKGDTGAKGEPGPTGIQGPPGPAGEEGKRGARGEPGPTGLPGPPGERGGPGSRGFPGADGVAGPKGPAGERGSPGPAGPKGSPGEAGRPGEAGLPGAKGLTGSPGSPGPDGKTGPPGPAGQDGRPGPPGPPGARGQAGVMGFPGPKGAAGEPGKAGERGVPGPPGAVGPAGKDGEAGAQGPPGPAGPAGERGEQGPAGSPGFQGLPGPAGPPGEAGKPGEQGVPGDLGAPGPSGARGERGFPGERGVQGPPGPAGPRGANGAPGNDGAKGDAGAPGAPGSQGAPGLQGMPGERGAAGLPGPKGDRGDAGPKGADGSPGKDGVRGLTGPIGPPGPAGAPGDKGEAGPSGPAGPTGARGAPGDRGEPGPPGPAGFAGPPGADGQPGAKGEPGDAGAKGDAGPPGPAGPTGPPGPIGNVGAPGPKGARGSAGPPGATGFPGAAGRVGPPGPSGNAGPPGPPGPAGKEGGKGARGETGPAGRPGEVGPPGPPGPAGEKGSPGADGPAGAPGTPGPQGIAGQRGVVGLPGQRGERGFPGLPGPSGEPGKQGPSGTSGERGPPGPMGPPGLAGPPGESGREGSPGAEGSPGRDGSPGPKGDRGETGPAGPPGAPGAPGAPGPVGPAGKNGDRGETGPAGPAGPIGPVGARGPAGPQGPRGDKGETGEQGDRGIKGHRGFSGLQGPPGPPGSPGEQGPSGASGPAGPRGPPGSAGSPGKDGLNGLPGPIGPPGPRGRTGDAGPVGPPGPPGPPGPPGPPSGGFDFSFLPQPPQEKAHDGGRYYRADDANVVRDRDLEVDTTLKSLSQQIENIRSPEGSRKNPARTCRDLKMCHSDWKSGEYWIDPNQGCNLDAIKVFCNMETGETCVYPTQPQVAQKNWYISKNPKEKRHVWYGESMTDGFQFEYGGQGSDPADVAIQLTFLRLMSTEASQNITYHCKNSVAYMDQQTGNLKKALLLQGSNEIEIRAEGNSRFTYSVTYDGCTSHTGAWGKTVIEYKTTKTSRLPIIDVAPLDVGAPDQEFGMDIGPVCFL
A short description of assay [8]: Binding affinity to synthetic ceramic hydroxyapatite type 1 assessed as reduction in bound compound level at 50 uM after 1 hr by NMR spectroscopic analysis relative to alendronate. More on the design: scale not given: the % may be the effect or the level left.
The species named for assay [9] is Canis lupus familiaris. The experiment in a line: Binding affinity to hound bone powder assessed as reduction in bound compound level at 50 uM after 1 hr by NMR spectroscopic analysis relative to alendronate. Further details: scale not given: the % may be the effect or the level left.
A short description of assay [10]: Binding affinity to synthetic ceramic hydroxyapatite type 1 assessed as reduction in bound compound level at 50 uM after 1 hr by NMR spectroscopic analysis relative to control. Further details: scale not given: the % may be the effect or the level left.
The species named for assay [11] is Canis lupus familiaris. In words: Binding affinity to hound bone powder at 50 uM after 1 to 8 hrs by 1H NMR spectroscopic analysis.
In the next assay the target is Estrogen receptor beta (Homo sapiens, UniProt Q92731). The experiment in a line: Binding affinity to ERbeta (unknown origin).
Estrogen receptor beta, sequence (Q92731 whole entry): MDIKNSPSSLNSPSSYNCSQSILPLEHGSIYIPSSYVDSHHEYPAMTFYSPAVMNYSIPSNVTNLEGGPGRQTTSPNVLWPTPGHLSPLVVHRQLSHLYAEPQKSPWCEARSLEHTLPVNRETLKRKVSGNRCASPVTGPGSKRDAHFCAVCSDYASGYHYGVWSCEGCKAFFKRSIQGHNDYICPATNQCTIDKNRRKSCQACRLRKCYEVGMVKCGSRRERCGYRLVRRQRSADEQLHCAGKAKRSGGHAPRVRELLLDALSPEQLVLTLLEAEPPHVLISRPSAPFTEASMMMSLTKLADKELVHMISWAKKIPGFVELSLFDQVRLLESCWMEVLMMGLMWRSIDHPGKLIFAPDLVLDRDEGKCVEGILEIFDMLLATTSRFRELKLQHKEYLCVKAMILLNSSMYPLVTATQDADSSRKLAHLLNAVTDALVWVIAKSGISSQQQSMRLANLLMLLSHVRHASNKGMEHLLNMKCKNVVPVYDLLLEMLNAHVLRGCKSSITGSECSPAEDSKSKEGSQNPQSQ
In a further assay the target is T1, Estrogen receptor (Homo sapiens, UniProt P03372).
T1 sequence (P03372 whole entry): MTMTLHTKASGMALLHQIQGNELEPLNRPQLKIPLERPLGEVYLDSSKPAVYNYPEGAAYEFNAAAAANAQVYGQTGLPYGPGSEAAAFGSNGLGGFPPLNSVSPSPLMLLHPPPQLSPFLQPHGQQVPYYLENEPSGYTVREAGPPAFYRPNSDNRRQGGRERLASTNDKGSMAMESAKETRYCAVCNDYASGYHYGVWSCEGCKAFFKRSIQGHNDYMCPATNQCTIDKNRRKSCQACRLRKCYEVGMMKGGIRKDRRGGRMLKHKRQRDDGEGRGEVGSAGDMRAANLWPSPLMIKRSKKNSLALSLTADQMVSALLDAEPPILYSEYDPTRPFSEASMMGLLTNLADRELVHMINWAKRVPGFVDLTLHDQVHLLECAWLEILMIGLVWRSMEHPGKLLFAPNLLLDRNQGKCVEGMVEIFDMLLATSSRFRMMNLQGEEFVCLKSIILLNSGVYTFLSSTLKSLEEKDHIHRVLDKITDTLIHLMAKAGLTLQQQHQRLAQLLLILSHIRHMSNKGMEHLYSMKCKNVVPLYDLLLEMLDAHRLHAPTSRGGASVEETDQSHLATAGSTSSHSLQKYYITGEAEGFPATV
The experiment in a line: Binding affinity to ERalpha (unknown origin).

For assay [12], the species on record is Canis lupus familiaris. In words: Binding affinity to hound bone powder assessed as change in vibration bands at 20 to 50 uM after 1 hr by FTIR analysis.

For the compound `O=C(c1ccc(O)cc1)c1c(-c2ccc(O)cc2)sc2cc(O)ccc12`, the Activity in the assay listed under Canis lupus familiaris [1] was 26.4%; in the assay listed under Canis lupus familiaris [2] it was 35.6%; in assay [3], 15.1%; in assay [4], 15.1%; in the assay listed under Canis lupus familiaris [5], -36%; in the assay filed under Canis lupus familiaris [6] it was 34.1%. Further, the Activity in assay [8] worked out at 13.3%; in the assay filed under Canis lupus familiaris [9] it was 26.4%; in [10], 13.3%. The result (in [7]; in the assay listed under Canis lupus familiaris [11]) was Active.

As to `NCCCC(O)(P(=O)(O)O)P(=O)(O)O`, the Activity in the assay filed under Canis lupus familiaris [1] worked out at 41.1%; in assay [4], 99.7%; in the assay listed under Canis lupus familiaris [6], 95.6%; in assay [10], 100%.

As to `COc1ccc(Nc2nc(NCc3ccco3)nc(N/N=C(\C)c3ccc(NC(C)=O)cc3)n2)cc1`, the Activity in the assay filed under Canis lupus familiaris [1] was 0.3%; in the assay listed under Canis lupus familiaris [2], -0.5%; in assay [3] it was 4.1%; in assay [4], 4.1%; in the assay listed under Canis lupus familiaris [6] it was -0.5%; in [8], 3.9%. The Activity is 0.3% in the assay filed under Canis lupus familiaris [9] and 3.9% in assay [10].

For `C[C@]12CC[C@@H]3c4ccc(O)cc4CC[C@H]3[C@@H]1CC[C@@H]2O`, the Activity came out at 5.3% in the assay filed under Canis lupus familiaris [1]; 77.4% in the assay listed under Canis lupus familiaris [2]; 73.2% in [3]; 73% in assay [4]; 73.9% in the assay filed under Canis lupus familiaris [6]; 57.1% in [8]. The Activity in the assay filed under Canis lupus familiaris [9] turned out to be 5.3%; in assay [10] it was 57.1%.

For the compound `O=C(c1ccc(OCCN2CCCCC2)cc1)c1c(-c2ccccc2)sc2ccccc12`, the Activity is -132% in the assay filed under Canis lupus familiaris [1]; 93.1% in the assay listed under Canis lupus familiaris [2]; -238% in assay [3]; -237% in [4]; 89% in the assay filed under Canis lupus familiaris [6]; -422% in assay [8]. In addition, the Activity in the assay listed under Canis lupus familiaris [9] was -132%; in assay [10], -422%. Further, the pKi at Estrogen receptor beta and at Estrogen receptor was less than 5.00 each time.

For `Oc1ccc(-c2cc3ccc(O)cc3s2)cc1` [RALOXIFENE CORE], the Activity in the assay filed under Canis lupus familiaris [1] is 42.8%; in the assay listed under Canis lupus familiaris [2], 48.6%; in [3], 11.7%; in [4], 11.7%; in the assay listed under Canis lupus familiaris [5], -75%; in the assay filed under Canis lupus familiaris [6], 46.4%. In addition, the Activity in assay [8] stood at 22.3%; in the assay filed under Canis lupus familiaris [9], 42.8%; in assay [10] it was 22.3%. On Estrogen receptor beta, this compound showed a negative logarithm of the Ki (pKi) of 8.64.

As for `O=C(c1ccc(OCCN2CCCCC2)cc1)c1c(-c2ccc(O)cc2)sc2cc(O)ccc12`, the Activity was 54.2% in the assay filed under Canis lupus familiaris [1]; 104% in the assay filed under Canis lupus familiaris [2]; -207% in [3]; -206% in [4]; 16% in the assay filed under Canis lupus familiaris [5]; 99% in the assay listed under Canis lupus familiaris [6]. In addition, the Activity in assay [8] was -232%; in the assay listed under Canis lupus familiaris [9], 54.2%; in [10] it was -232%. Also, the outcome (in assay [7]; in the assay listed under Canis lupus familiaris [12]; in the assay listed under Canis lupus familiaris [11]) was Active.

As to `COc1ccc2c(C(=O)c3ccc(OCCN4CCCCC4)cc3)c(-c3ccc(O)cc3)sc2c1`, the Activity was 21% in the assay listed under Canis lupus familiaris [1]; 77.4% in the assay filed under Canis lupus familiaris [2]; -287% in assay [3]; -286% in assay [4]; 25% in the assay filed under Canis lupus familiaris [5]; 73.9% in the assay filed under Canis lupus familiaris [6]. Also, the Activity in assay [8] was -57.9%; in the assay listed under Canis lupus familiaris [9], 21%; in [10], -57.9%. For the same compound, the outcome (in assay [7]; in the assay listed under Canis lupus familiaris [11]) was Active.
